Data taken from article PMC11995724, “Antibiotic target discovery by integrated phenotypic and activity-based profiling of electrophilic fragments” (Cell chemical biology, 2025).
Structures can show the parent of a compound that is named as a salt.

Experiment: in vitro
Settings: human, hek293t cells
Work on `CS(=O)(=O)Nc1ccc(C(=O)CCl)cc1` [10-D19, N-[4-(2-chloroacetyl)phenyl]methanesulfonamide] yielded a viability at 48 h, 25 µM of 76.6%.
`CC(Cl)C(=O)N[C@H](C)c1cnnn1C` (stereo partly drawn) [6-D13, 2-chloro-N-[(1R)-1-(1-methyl-1H-1,2,3-triazol-5-yl)ethyl]propanamide] showed a viability at 48 h, 25 µM of 103%.
In the case of `C=CC(=O)NC1CCN(c2ccc(Cl)c(Cl)c2)C1` (stereo not shown) [1-C14, N-[1-(3,4-dichlorophenyl)pyrrolidin-3-yl]prop-2-enamide], the viability at 48 h, 25 µM is reported as 52.9%.
Work on `Cc1cccc(C=C(C#N)C(=O)NC(C)c2ccccc2)c1` (stereo not shown) [8-F18, 2-cyano-3-(3-methylphenyl)-N-(1-phenylethyl)prop-2-enamide] yielded a viability at 48 h, 25 µM of 36.3%.
Compound `C=CC(=O)Nc1ccc(OCCC)c(C)c1` [1-C20, N-(3-methyl-4-propoxyphenyl)prop-2-enamide] has a viability at 48 h, 25 µM of 80.1%.
Compound `Cc1ccoc1C=C(C#N)C(=O)NCCc1ccccc1` [9-N03, 2-cyano-3-(3-methylfuran-2-yl)-N-(2-phenylethyl)prop-2-enamide] has a viability at 48 h, 25 µM of 93.9%.
In the case of `C=CC(=O)NC1CCOC1C` (stereo not shown) [1-F06, N-(2-methyloxolan-3-yl)prop-2-enamide], the viability at 48 h, 25 µM is reported as 74.6%.
Compound `C=CCNC(=O)C(C#N)=Cc1ccc(C#N)cc1` [8-O07, 2-cyano-3-(4-cyanophenyl)-N-(prop-2-en-1-yl)prop-2-enamide] has a viability at 48 h, 25 µM of 85.6%.
`CCc1cccc(NC(=O)CCl)c1` [4-F04, 2-chloro-N-(3-ethylphenyl)acetamide] showed a viability at 48 h, 25 µM of 0.569%.
`O=C(CCl)c1ccccn1` [10-J03, 2-chloro-1-(pyridin-2-yl)ethan-1-one] gave a viability at 48 h, 25 µM of 94.4%.
`C=CC(=O)N1CCCn2cccc2C12CCOCC2` [1-A22, 1-{2',3',4',5'-tetrahydrospiro[oxane-4,1'-pyrrolo[1,2-a][1,4]diazepin]-2'-yl}prop-2-en-1-one] showed a viability at 48 h, 25 µM of 109%.
With `Cc1ccccc1C(C)NC(=O)C(C#N)=Cc1ccco1` (stereo not shown) [9-E06, 2-cyano-3-(furan-2-yl)-N-[1-(2-methylphenyl)ethyl]prop-2-enamide] the viability at 48 h, 25 µM was 107%.
Work on `C=CC(=O)N1CCCN(C(=O)c2ccc(OC)cc2)CC1` [3-A21, 1-[4-(4-methoxybenzoyl)-1,4-diazepan-1-yl]prop-2-en-1-one] yielded a viability at 48 h, 25 µM of 53.5%.
Compound `C=CC(=O)NCc1ccccc1S(=O)(=O)NC(C)(C)C` [1-J03, N-{[2-(tert-butylsulfamoyl)phenyl]methyl}prop-2-enamide] has a viability at 48 h, 25 µM of 160%.
`CC(C)c1ccc(Cn2[nH]ccc2=NC(=O)CCl)cc1` [5-P12, 2-chloro-N-(2-{[4-(propan-2-yl)phenyl]methyl}-2,3-dihydro-1H-pyrazol-3-ylidene)acetamide] gave a viability at 48 h, 25 µM of -0.215%.
For `C=CC(=O)N1CCC(CC(C)(C)C)C1` (stereo not shown) [2-O19, 1-[3-(2,2-dimethylpropyl)pyrrolidin-1-yl]prop-2-en-1-one], the viability at 48 h, 25 µM was 147%.
Compound `CC(Cl)C(=O)N1CCN(C(C)c2cccc(C#N)c2)CC1` (stereo not shown) [7-P22, 3-{1-[4-(2-chloropropanoyl)piperazin-1-yl]ethyl}benzonitrile] has a viability at 48 h, 25 µM of 66.4%.
Compound `N#CC(=Cc1cccs1)C(=O)Nc1ccccc1Cl` [9-L11, N-(2-chlorophenyl)-2-cyano-3-(thiophen-2-yl)prop-2-enamide] has a viability at 48 h, 25 µM of 112%.
With `CC(C)NC(=O)C(C#N)=Cc1ccc(C#N)cc1` [9-M11, 2-cyano-3-(4-cyanophenyl)-N-(propan-2-yl)prop-2-enamide] the viability at 48 h, 25 µM was 123%.
Compound `COc1ccc(C=C(C#N)C(=O)Nc2ccccc2OC)cc1` [8-G09, 2-cyano-N-(2-methoxyphenyl)-3-(4-methoxyphenyl)prop-2-enamide] has a viability at 48 h, 25 µM of 80.4%.
With `C=CC(=O)NC1(Cc2ccccc2)CC1` [3-P13, N-(1-benzylcyclopropyl)prop-2-enamide] the viability at 48 h, 25 µM was 61.5%.
With `CC1CCCCC1NC(=O)C(C#N)=Cc1cccc(O)c1` (stereo not shown) [8-E07, 2-cyano-3-(3-hydroxyphenyl)-N-(2-methylcyclohexyl)prop-2-enamide] the viability at 48 h, 25 µM was 45.1%.
With `CC(Cl)C(=O)N1CCN(Cc2cnn(-c3ccccc3)c2)CC1` (stereo not shown) [7-F13, 2-chloro-1-{4-[(1-phenyl-1H-pyrazol-4-yl)methyl]piperazin-1-yl}propan-1-one] the viability at 48 h, 25 µM was 93%.
`CC(Cl)C(=O)N1CCCCC1c1nc(-c2ncccn2)no1` (stereo not shown) [7-D15, 2-chloro-1-{2-[3-(pyrimidin-2-yl)-1,2,4-oxadiazol-5-yl]piperidin-1-yl}propan-1-one] gave a viability at 48 h, 25 µM of 85.8%.
In the case of `Cc1cc2ncn(CC(NC(=O)C(C)Cl)C3CC3)c2cc1C` (stereo not shown) [7-J17, 2-chloro-N-[1-cyclopropyl-2-(5,6-dimethyl-1H-1,3-benzodiazol-1-yl)ethyl]propanamide], the viability at 48 h, 25 µM is reported as 84.7%.
In the case of `C=CC(=O)NC[C@@H]1CCCN1c1ccccc1` [3-E03, N-{[(2S)-1-phenylpyrrolidin-2-yl]methyl}prop-2-enamide], the viability at 48 h, 25 µM is reported as 60.1%.
`C=CC(=O)N1CCC(C(=O)NCc2ccc(Cl)cc2Cl)CC1` [1-E20, N-[(2,4-dichlorophenyl)methyl]-1-(prop-2-enoyl)piperidine-4-carboxamide] gave a viability at 48 h, 25 µM of 95.8%.
`Cc1ccc(NC(=O)C(C#N)=Cc2ccc(C)s2)cc1` [8-K13, 2-cyano-N-(4-methylphenyl)-3-(5-methylthiophen-2-yl)prop-2-enamide] gave a viability at 48 h, 25 µM of 77%.
With `C=CC(=O)Nc1cnc(S(C)(=O)=O)c(C)c1` [2-O14, N-(6-methanesulfonyl-5-methylpyridin-3-yl)prop-2-enamide] the viability at 48 h, 25 µM was 99.6%.
`C=CC(=O)NCc1ccc(C(=O)N2CCC(C#N)CC2)cc1` [3-P05, N-{[4-(4-cyanopiperidine-1-carbonyl)phenyl]methyl}prop-2-enamide] gave a viability at 48 h, 25 µM of 46.3%.
`C=CC(=O)NCc1ncccc1S(C)(=O)=O` [2-D21, N-[(3-methanesulfonylpyridin-2-yl)methyl]prop-2-enamide] showed a viability at 48 h, 25 µM of 80%.
In the case of `CC(C)CN(C(=O)CCl)C1CC1` [5-D14, 2-chloro-N-cyclopropyl-N-(2-methylpropyl)acetamide], the viability at 48 h, 25 µM is reported as 1.19%.
With `C=CC(=O)NCC(C)(C)Cn1cccn1` [1-J04, N-[2,2-dimethyl-3-(1H-pyrazol-1-yl)propyl]prop-2-enamide] the viability at 48 h, 25 µM was 69.4%.
Compound `N#CC(=Cc1c(C2CC2)nc2sccn12)C(=O)NC1CCCCC1` [9-H18, 2-cyano-N-cyclohexyl-3-{6-cyclopropylimidazo[2,1-b][1,3]thiazol-5-yl}prop-2-enamide] has a viability at 48 h, 25 µM of 86.8%.
Work on `N#CC(=Cc1cccc2ccccc12)C(=O)NCc1ccc(Cl)cc1` [8-J09, N-[(4-chlorophenyl)methyl]-2-cyano-3-(naphthalen-1-yl)prop-2-enamide] yielded a viability at 48 h, 25 µM of 66%.
In the case of `C=CC(=O)NCc1nnc(C(F)(F)F)s1` [1-O14, N-{[5-(trifluoromethyl)-1,3,4-thiadiazol-2-yl]methyl}prop-2-enamide], the viability at 48 h, 25 µM is reported as 131%.
For `CC(=O)NCCc1ccc(C(=O)C(C)Cl)cc1` (stereo not shown) [10-B03, N-{2-[4-(2-chloropropanoyl)phenyl]ethyl}acetamide], the viability at 48 h, 25 µM was 85.1%.
For `C=CC(=O)N1CCC(n2cc(CO)nn2)C1` (stereo not shown) [2-E08, 1-{3-[4-(hydroxymethyl)-1H-1,2,3-triazol-1-yl]pyrrolidin-1-yl}prop-2-en-1-one], the viability at 48 h, 25 µM was 81.8%.
Compound `O=C(CCl)NC1CCCN(Cc2ccccc2)C1=O` (stereo not shown) [7-J10, N-(1-benzyl-2-oxopiperidin-3-yl)-2-chloroacetamide] has a viability at 48 h, 25 µM of 55.1%.
Compound `CC1CN(CCCNC(=O)CCl)CC(C)O1` (stereo not shown) [6-G11, 2-chloro-N-[3-(2,6-dimethylmorpholin-4-yl)propyl]acetamide hydrochloride] has a viability at 48 h, 25 µM of 116%.
With `C=CC(=O)N1CCn2nccc21` [1-P16, 1-{1H,2H,3H-pyrazolo[1,5-a]imidazol-1-yl}prop-2-en-1-one] the viability at 48 h, 25 µM was 56.6%.
Work on `Cc1cc(CNC(=O)CCl)[nH]n1` [7-L22, 2-chloro-N-[(3-methyl-1H-pyrazol-5-yl)methyl]acetamide] yielded a viability at 48 h, 25 µM of 90.6%.
Compound `N#Cc1cccc(C(NC(=O)CCl)C(F)(F)F)c1` (stereo not shown) [7-N04, 2-chloro-N-[1-(3-cyanophenyl)-2,2,2-trifluoroethyl]acetamide] has a viability at 48 h, 25 µM of 0.24%.
In the case of `CC(Cl)C(=O)NC1CC(C)N(c2ccccc2)C1` (stereo not shown) [6-L15, 2-chloro-N-(5-methyl-1-phenylpyrrolidin-3-yl)propanamide], the viability at 48 h, 25 µM is reported as 99.3%.
`O=C(CCl)N[C@H](CO)Cc1ccccc1` [6-G20, 2-chloro-N-[(2S)-1-hydroxy-3-phenylpropan-2-yl]acetamide] showed a viability at 48 h, 25 µM of 81.9%.
`COc1ccc(CN2CCN(C(=O)CCl)CC2)cc1F` [4-P18, 2-chloro-1-{4-[(3-fluoro-4-methoxyphenyl)methyl]piperazin-1-yl}ethan-1-one hydrochloride] gave a viability at 48 h, 25 µM of 0.482%.
Compound `CC(Cl)C(=O)NCC1CCN(C)c2ccccc21` (stereo not shown) [7-J11, 2-chloro-N-[(1-methyl-1,2,3,4-tetrahydroquinolin-4-yl)methyl]propanamide] has a viability at 48 h, 25 µM of 79.9%.
Work on `O=C(CCl)Nc1ccc(S(=O)(=O)c2ccc(F)cc2)cc1` [6-O14, 2-chloro-N-[4-(4-fluorobenzenesulfonyl)phenyl]acetamide] yielded a viability at 48 h, 25 µM of 0.578%.
For `CC(Cl)C(=O)NC(=O)Nc1ccc2c(c1)OCCO2` (stereo not shown) [5-D08, 3-(2-chloropropanoyl)-1-(2,3-dihydro-1,4-benzodioxin-6-yl)urea], the viability at 48 h, 25 µM was 84.1%.
Work on `C=CC(=O)NCCn1nnc2ccccc21` [2-N11, N-[2-(1H-1,2,3-benzotriazol-1-yl)ethyl]prop-2-enamide] yielded a viability at 48 h, 25 µM of 67.3%.
`CCOc1ccc(C=C(C#N)C(=O)N2CCc3sccc3C2)cc1` [8-G22, 3-(4-ethoxyphenyl)-2-{4H,5H,6H,7H-thieno[3,2-c]pyridine-5-carbonyl}prop-2-enenitrile] gave a viability at 48 h, 25 µM of 61.5%.
Compound `COCC(C)NC(=O)C(C#N)=Cc1cccc(F)c1F` (stereo not shown) [9-F09, 2-cyano-3-(2,3-difluorophenyl)-N-(1-methoxypropan-2-yl)prop-2-enamide] has a viability at 48 h, 25 µM of 114%.
With `O=C(CCl)Nc1ccccc1OC(F)F` [4-N09, 2-chloro-N-[2-(difluoromethoxy)phenyl]acetamide] the viability at 48 h, 25 µM was 0.7%.
Work on `O=C(CCl)N(Cc1ccccc1)CC(F)(F)F` [4-B20, N-benzyl-2-chloro-N-(2,2,2-trifluoroethyl)acetamide] yielded a viability at 48 h, 25 µM of 1.12%.
In the case of `C=CC(=O)N(Cc1ccc(Cl)cc1Cl)CC1CCC(O)C1` (stereo not shown) [1-B04, N-[(2,4-dichlorophenyl)methyl]-N-[(3-hydroxycyclopentyl)methyl]prop-2-enamide], the viability at 48 h, 25 µM is reported as 26.4%.
